Laboratory results taken from ChEMBL document CHEMBL4304778 (Eur J Med Chem, 2019).
pIC50: −log10 of the molar value.

Legend:
PC-3 = assay: Antitumor activity against human PC3 cells by MTT assay; format: functional, cell-based
MCF7 = assay: Antitumor activity against human MCF7 cells by MTT assay; format: functional, cell-based
HepG2 [1] = assay: Antitumor activity against human HepG2 cells by MTT assay; format: functional, cell-based
[2] = molecular target: Signal transducer and activator of transcription 3 (Homo sapiens) (UniProt P40763); assay: Activation of STAT3 phosphorylation at Y705 residue in human Huh7 cells relative to control; format: cell-based
Signal transducer and activator of transcription 3 (Homo sapiens), sequence (P40763 whole entry): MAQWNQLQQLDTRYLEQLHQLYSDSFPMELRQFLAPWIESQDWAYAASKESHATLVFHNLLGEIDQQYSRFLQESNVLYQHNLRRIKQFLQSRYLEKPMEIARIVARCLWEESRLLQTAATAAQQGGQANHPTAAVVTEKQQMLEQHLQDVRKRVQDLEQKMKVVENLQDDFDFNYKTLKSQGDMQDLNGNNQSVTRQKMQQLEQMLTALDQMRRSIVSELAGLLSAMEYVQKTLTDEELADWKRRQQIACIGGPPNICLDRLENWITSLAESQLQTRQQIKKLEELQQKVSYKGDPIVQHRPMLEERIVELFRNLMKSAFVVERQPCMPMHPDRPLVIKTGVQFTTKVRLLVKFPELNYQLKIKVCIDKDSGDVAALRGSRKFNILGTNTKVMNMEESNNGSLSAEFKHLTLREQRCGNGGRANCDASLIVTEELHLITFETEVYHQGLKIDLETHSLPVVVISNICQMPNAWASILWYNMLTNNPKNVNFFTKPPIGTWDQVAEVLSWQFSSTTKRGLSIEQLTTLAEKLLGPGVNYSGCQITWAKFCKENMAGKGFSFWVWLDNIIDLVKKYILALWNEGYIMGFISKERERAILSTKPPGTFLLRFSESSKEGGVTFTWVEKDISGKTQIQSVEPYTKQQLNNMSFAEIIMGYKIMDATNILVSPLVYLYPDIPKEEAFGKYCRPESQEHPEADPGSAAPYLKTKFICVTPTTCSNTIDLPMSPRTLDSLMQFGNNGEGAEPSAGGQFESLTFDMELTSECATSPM

HepG2 [3] = assay: Induction of apoptosis in human HepG2 cells relative to control; format: functional
[4] = Induction of apoptosis in human PLC5 cells relative to control; format: functional
Hep 3B2 = assay: Induction of apoptosis in human Hep3B cells relative to control; format: functional
SMMC-7721 = assay: Cytotoxicity against human SMMC7721 cells after 24 hrs by MTT assay; format: functional, cell-based; details: SMMC-7721, 24 h
HepG2 [5] = assay: Cytotoxicity against human HepG2 cells after 24 hrs by MTT assay; format: functional, cell-based; details: HepG2, 24 h
[6] = molecular target: Vascular endothelial growth factor receptor 1 (Homo sapiens, UniProt P17948); assay: Inhibition of VEGFR1 (unknown origin)
Vascular endothelial growth factor receptor 1, sequence (P17948 whole entry): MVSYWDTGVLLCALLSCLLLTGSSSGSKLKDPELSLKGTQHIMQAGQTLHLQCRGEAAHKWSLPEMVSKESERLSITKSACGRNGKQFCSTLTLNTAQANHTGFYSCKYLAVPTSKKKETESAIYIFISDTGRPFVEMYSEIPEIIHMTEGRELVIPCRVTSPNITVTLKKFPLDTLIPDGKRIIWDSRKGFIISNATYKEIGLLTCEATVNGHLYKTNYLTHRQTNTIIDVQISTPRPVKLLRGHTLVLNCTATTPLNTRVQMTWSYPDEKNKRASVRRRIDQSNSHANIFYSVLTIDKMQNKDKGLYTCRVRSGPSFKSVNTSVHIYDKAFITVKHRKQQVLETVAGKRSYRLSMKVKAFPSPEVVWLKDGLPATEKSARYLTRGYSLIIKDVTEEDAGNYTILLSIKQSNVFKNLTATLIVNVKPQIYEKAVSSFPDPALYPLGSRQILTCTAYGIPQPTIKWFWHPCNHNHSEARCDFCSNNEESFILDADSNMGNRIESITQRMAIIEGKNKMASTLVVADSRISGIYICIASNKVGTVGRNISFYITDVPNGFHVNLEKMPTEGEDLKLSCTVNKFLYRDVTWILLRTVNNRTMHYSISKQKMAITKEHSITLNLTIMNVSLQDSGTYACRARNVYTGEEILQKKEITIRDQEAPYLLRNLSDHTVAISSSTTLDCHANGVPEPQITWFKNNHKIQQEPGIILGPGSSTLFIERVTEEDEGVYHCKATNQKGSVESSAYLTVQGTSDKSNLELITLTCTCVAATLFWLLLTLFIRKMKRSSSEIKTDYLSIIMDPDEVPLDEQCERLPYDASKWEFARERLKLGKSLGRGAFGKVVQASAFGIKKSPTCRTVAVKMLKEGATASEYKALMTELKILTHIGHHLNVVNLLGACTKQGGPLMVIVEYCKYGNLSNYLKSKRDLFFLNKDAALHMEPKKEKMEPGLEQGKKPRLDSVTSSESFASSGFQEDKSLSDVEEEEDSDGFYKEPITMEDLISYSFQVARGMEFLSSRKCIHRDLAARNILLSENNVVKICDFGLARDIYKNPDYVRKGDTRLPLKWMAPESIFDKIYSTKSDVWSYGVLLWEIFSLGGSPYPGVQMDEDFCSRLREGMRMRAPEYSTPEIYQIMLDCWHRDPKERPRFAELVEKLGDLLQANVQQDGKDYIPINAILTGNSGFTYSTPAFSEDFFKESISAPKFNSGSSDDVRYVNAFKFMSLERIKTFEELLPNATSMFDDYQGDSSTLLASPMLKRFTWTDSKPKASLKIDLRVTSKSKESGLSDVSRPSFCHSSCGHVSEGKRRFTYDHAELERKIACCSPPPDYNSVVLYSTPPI

[7] = molecular target: Vascular endothelial growth factor receptor 3 (Homo sapiens, UniProt P35916); assay: Inhibition of VEGFR3 (unknown origin)
Vascular endothelial growth factor receptor 3, sequence (P35916 whole entry): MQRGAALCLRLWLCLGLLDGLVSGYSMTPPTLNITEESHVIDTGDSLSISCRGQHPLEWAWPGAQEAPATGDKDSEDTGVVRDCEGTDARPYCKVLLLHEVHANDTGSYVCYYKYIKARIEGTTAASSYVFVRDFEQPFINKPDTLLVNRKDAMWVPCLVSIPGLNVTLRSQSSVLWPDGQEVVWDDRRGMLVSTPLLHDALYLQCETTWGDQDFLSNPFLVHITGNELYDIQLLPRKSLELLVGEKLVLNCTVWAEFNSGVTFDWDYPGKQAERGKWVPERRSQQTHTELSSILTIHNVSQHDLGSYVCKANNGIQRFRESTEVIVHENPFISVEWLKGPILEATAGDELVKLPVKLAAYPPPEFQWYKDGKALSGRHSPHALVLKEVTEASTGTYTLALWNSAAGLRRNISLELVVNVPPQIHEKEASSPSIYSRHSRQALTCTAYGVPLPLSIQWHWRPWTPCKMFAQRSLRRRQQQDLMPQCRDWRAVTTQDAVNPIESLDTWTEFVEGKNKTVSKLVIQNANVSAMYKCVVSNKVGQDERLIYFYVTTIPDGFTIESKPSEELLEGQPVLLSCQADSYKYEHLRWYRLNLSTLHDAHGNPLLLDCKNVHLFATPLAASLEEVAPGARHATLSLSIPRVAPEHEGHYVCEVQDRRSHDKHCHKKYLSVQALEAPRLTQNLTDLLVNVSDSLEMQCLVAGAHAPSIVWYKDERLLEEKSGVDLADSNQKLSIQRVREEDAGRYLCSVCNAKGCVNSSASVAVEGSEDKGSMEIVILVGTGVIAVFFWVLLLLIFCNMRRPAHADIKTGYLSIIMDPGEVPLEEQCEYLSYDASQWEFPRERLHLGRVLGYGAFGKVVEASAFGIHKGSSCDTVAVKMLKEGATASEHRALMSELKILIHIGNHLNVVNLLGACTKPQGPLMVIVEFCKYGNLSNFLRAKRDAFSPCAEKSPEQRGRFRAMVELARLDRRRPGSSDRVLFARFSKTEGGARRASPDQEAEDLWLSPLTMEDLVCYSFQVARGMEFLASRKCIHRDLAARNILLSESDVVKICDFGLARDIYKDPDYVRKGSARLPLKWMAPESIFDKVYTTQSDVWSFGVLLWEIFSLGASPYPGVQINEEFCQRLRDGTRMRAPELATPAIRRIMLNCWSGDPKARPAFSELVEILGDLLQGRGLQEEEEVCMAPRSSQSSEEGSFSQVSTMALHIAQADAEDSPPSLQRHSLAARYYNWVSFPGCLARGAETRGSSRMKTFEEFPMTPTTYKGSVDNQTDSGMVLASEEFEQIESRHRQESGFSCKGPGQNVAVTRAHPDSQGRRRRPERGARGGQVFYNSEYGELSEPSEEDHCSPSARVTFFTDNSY

M21 = assay: Antiproliferative activity against human M21 cells bt MTT assay; format: functional, cell-based
PLC = assay: Cytotoxicity against human PLC cells; format: functional, cell-based

Row | pIC50 (PC-3) | pIC50 (MCF7) | pIC50 (HepG2 [1]) | Structure (SMILES) | also measured
1 | 5.04 | 4.86 | 4.89 | CCN1CCC(=O)/C(=C/c2ccc(OC3CCCC3)cc2)C1 | –
2 | – | – | – | Cc1ccc(NC(=O)C2(C(=O)Nc3ccc(C)c(Oc4ccc(C#N)cc4)c3)CC2)cc1Oc1ccc(C#N)cc1 | Activity [2]: 80%; Activity (HepG2 [3]): 2%; Activity [4]: 4.5%; Activity (Hep 3B2): 2.5%
3 | – | – | – | O=C(Nc1ccc(Cl)cc1)Nc1ccc(Oc2ncnc3cc(F)ccc23)cc1 | pIC50 (SMMC-7721): 4.98; pIC50 (HepG2 [5]): 5.09
4 | 4.03 | < 4.00 | < 4.00 | O=C1CCC/C1=C\c1ccc(OC2CCCC2)cc1 | –
5 | 4.88 | 5.12 | 5.10 | CCOC(=O)C1=C(C)OC(N)=C(C#N)C1c1ccc(OC2CCCC2)cc1 (stereo unspecified) | –
6 | 4.57 | 4.19 | 4.15 | O=C1CCCCC/C1=C\c1ccc(OC2CCCC2)cc1 | –
7 | – | – | – | Cc1ccc(NC(=O)Nc2ccc(C)c(Oc3ccc(C#N)cc3)c2)cc1Oc1ccc(C#N)cc1 | Activity [2]: 40%; Activity (HepG2 [3]): 22.5%; Activity [4]: 17.5%; Activity (Hep 3B2): 17.5%
8 | 4.98 | 4.74 | 4.80 | CN1CCC(=O)/C(=C/c2ccc(OC3CCCC3)cc2)C1 | –
9 | – | – | – | COc1cc2nccc(Oc3ccc(NC(=O)NC4CC4)c(Cl)c3)c2cc1C(N)=O [LENVATINIB] | pIC50 [6]: 7.66
10 | 4.15 | 4.31 | 4.26 | O=C1CCCC/C1=C\c1ccc(OC2CCCC2)cc1 | –
11 | – | – | – | COc1cc2nccc(Oc3ccc(NC(=O)C4(C(=O)Nc5ccc(F)cc5)CC4)cc3)c2cc1OC [CABOZANTINIB] | pIC50 [7]: 8.22
12 | – | – | – | O=C(Nc1ccc(-n2ncc3c(Br)cccc32)cc1)Nc1ccc(Cl)c(C(F)(F)F)c1 | pIC50 (M21): 5.46
13 | 4.66 | 4.39 | 4.56 | CC(=O)/C=C/c1ccc(OC2CCCC2)cc1 | –
14 | – | – | – | O=C(Nc1ccc(-n2ncc3cc(C(F)(F)F)ccc32)cc1)Nc1ccc(C(F)(F)F)cc1 | pIC50 (PLC): 5.36
15 | 4.77 | 4.44 | 4.70 | Cc1ccc(C(=O)/C=C/c2ccc(OC3CCCC3)cc2)cc1 | –
16 | 5.11 | 5.25 | 5.14 | Cc1ccc(C2=NN(c3ccccc3)C(c3ccc(OC4CCCC4)cc3)C2)cc1 (stereo unspecified) | –
